{"source": "paper PMC5762315", "about": "“Inhibition of polo-like kinase 4 (PLK4): a new therapeutic option for rhabdoid tumors and pediatric medulloblastoma” (Oncotarget, 2017)", "key": {"MON rhabdoid cells": {"tested_on": "MON rhabdoid cells", "assay": "Flow cytometry cell cycle analysis (polyploidy), MON", "type": "cell-based, human", "settings": "100nM for 3-72 hours", "protocol": "(§1) Cell cycle evaluation was performed by staining the cells with PI (Thermo Fisher Scientific, USA) according to manufacturer’s instructions. […] Data was analyzed using Modfit LT from Verity Software House. Experiments were performed in triplicates."}, "[1]": {"tested_on": "MON, G401, BT-12 and BT-16 rhabdoid cell lines", "assay": "Flow cytometry apoptosis (Annexin V / PI)", "type": "cell-based, human", "settings": "G401, BT-12, BT-16, 100nM for 48 hours", "protocol": "Live cells were stained with Annexin V as an indicator of early apoptosis and Propidium Iodide (PI - Thermo Fisher Scientific, USA) for detection of late apoptosis and necrosis, according to manufacturer’s instructions (Thermo Fisher Scientific, USA). Flow cytometric analysis was performed on a BD Fortessa instrument (BD Biosciences, USA) within an hour of staining. Data was analyzed using Modfit LT from Verity Software House. All experiments were performed in triplicates."}, "DAOY cells": {"tested_on": "DAOY cells", "assay": "Viability assay (Presto Blue), DAOY", "type": "cell-based", "settings": "Homo sapiens, dose-response 1nM to 10μM"}, "[2]": {"tested_on": "G401, BT-16, DAOY and D283 cell lines", "assay": "Flow cytometry cell cycle analysis (polyploidy), other RT and MB lines", "type": "cell-based, human", "settings": "100nM for 48 hours", "protocol": "as §1"}, "G401 RTK cells": {"tested_on": "G401 RTK cells", "assay": "Confluency assay (IncuCyte ZOOM), G401", "type": "cell-based, human", "settings": "increasing concentrations starting at 31.25nM, 48 hours, p-value=0.004", "protocol": "(§2) For further evaluation of the effect of the PLK4 inhibitor over tumor cell proliferation, confluency was measured over a 48 hour period. MON, BT-12, G401 and DAOY cells were plated in 96-well plates with a density of 6 x 10^4 per well. […] Confluency was monitored for 48 hours by taking phase contrast images every 2 hours and measured using an IncuCyte ZOOM system (Essen BioScience, USA). Experiments were performed in triplicates."}, "G401 cells": {"tested_on": "G401 cells", "assay": "Viability assay (Presto Blue), G401", "type": "cell-based", "settings": "Homo sapiens, G-401, dose-response 1nM to 10μM", "protocol": "(§3) Except DAOY and D283, all cell lines were plated with 2 x 10^3 cells per well 96-well and the absorbance was measured after 48 and 72 hours at drug concentrations of 5, 10, 50, 100, 200, 500nM, 1μM and 5μM."}, "TEK [3]": {"molecular_target": "TEK (Homo sapiens, UniProt Q02763, Y1108F)", "assay": "Kinase activity screening (SelectScreen), TEK", "type": "biochemical"}, "TEK [4]": {"molecular_target": "TEK (Homo sapiens, UniProt Q02763, Y897S)", "sequence (Q02763 771-1124 Y897S)": "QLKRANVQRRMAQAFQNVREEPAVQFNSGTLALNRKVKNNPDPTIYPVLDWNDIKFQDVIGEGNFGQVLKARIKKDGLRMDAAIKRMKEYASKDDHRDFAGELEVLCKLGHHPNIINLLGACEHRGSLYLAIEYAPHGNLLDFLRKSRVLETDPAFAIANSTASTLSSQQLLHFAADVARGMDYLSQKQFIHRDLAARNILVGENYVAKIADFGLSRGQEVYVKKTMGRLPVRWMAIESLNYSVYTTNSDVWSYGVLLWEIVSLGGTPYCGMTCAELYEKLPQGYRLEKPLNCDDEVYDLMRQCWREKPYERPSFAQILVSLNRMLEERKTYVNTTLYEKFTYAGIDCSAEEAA", "assay": "Kinase activity screening (SelectScreen), TEK", "type": "biochemical", "settings": "kinase TEK (TIE2) Y897S; ZLYTE"}, "TEK [5]": {"tested_on": "TEK", "assay": "Kinase activity screening (SelectScreen), TEK", "type": "biochemical", "settings": "kinase TEK (Tie2); ZLYTE"}, "TEK [6]": {"molecular_target": "TEK (Homo sapiens, UniProt Q02763, R849W)", "sequence (Q02763 771-1124 R849W)": "as the sequence (Q02763 771-1124 Y897S) above, with R79W, S127Y counted along it", "assay": "Kinase activity screening (SelectScreen), TEK", "type": "biochemical", "settings": "kinase TEK (TIE2) R849W; LanthaScreen Binding"}, "D283 cells": {"tested_on": "D283 cells", "assay": "Colony formation assay, D283", "type": "cell-based, human", "settings": "50nM", "quoted_text": "For proliferation assay DAOY was plated with 5 x 10^4 cells per well and D283 was plated with 5 x 10^5 cells per well."}, "various kinases [7]": {"molecular_target": "various kinases (Homo sapiens, UniProt P04626)", "sequence (P04626 23-1255)": "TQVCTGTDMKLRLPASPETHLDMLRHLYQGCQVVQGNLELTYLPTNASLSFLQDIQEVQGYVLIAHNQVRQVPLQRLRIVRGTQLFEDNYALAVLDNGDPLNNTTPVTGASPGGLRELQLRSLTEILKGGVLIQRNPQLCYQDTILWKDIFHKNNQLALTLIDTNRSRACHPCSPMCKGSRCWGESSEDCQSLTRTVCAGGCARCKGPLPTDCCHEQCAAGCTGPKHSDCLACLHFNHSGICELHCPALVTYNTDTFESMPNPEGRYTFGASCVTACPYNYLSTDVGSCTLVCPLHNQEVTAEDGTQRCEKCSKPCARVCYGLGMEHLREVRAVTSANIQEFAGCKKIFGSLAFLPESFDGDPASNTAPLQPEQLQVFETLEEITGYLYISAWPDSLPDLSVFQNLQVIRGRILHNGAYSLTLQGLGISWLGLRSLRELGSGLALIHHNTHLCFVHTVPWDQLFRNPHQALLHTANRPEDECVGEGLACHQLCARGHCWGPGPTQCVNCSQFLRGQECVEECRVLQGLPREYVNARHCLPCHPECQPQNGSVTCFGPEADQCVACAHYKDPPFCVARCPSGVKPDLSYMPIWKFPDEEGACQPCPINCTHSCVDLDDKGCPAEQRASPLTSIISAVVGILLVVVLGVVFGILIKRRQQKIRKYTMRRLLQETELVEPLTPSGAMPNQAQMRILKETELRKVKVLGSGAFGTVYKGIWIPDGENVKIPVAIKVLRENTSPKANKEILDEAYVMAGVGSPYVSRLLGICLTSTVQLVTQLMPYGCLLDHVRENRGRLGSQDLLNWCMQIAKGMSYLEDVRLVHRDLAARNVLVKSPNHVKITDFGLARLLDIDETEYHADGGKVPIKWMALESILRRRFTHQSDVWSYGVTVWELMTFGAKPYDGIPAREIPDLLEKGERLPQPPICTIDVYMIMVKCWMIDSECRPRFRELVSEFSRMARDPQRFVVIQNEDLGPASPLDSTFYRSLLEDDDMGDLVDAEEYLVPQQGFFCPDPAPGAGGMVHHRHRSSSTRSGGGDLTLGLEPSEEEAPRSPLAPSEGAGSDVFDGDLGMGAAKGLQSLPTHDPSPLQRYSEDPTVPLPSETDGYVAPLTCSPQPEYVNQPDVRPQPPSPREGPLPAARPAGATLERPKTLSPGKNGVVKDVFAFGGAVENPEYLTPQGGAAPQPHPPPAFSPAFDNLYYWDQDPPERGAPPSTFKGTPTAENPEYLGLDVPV", "assay": "biochemical", "type": "biochemical", "settings": "ERBB2 (HER2)"}, "various kinases [8]": {"molecular_target": "various kinases (Homo sapiens, UniProt P49760)", "sequence (P49760 whole entry)": "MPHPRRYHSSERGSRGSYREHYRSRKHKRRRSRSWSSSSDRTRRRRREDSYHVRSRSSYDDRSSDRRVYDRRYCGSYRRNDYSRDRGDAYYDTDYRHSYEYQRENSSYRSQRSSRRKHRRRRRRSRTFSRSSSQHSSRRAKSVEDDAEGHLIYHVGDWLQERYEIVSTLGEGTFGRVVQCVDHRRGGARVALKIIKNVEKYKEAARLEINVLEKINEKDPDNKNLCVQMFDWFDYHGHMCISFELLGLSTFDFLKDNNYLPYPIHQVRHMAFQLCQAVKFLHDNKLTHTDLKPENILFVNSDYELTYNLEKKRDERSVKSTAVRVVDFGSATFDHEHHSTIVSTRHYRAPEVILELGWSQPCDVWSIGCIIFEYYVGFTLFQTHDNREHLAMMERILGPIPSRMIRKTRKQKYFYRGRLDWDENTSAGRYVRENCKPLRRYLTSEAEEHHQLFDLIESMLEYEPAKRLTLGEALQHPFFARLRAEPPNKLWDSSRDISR", "assay": "biochemical", "type": "biochemical", "settings": "CLK2"}, "various kinases [9]": {"molecular_target": "various kinases (Homo sapiens, UniProt Q6VAB6)", "sequence (Q6VAB6 whole entry)": "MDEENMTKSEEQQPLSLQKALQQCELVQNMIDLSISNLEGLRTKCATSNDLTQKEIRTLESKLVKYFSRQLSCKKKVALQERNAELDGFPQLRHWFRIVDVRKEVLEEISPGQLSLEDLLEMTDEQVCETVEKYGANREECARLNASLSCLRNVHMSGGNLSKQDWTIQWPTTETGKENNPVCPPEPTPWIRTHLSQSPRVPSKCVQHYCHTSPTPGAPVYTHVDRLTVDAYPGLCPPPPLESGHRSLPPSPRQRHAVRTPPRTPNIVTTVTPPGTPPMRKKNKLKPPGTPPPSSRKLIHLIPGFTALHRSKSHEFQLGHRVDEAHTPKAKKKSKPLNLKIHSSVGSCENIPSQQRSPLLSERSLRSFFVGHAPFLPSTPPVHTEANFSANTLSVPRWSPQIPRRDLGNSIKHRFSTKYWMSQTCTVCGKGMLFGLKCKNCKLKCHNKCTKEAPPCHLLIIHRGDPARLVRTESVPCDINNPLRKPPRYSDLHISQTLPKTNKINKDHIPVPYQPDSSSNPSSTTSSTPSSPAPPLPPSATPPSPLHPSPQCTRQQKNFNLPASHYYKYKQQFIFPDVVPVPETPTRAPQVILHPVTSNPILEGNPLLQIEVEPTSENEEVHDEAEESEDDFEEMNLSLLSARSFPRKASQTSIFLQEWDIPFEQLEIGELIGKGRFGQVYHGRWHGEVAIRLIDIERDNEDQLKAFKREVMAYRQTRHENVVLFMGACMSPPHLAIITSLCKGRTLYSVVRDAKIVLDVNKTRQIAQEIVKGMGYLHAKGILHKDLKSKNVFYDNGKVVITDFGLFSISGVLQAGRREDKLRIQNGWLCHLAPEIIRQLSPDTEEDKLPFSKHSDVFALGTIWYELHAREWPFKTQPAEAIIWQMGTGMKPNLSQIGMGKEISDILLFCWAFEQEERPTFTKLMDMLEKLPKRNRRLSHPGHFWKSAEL", "assay": "biochemical", "type": "biochemical", "settings": "KSR2"}, "various kinases [10]": {"molecular_target": "various kinases (Homo sapiens, UniProt P80192)", "assay": "biochemical", "type": "biochemical", "settings": "MAP3K9 (MLK1)"}, "various kinases [11]": {"molecular_target": "various kinases (Homo sapiens, UniProt Q86V86)", "assay": "biochemical", "type": "biochemical", "settings": "PIM3"}, "various kinases [12]": {"molecular_target": "various kinases (Homo sapiens, UniProt Q9H4B4)", "sequence (Q9H4B4 whole entry)": "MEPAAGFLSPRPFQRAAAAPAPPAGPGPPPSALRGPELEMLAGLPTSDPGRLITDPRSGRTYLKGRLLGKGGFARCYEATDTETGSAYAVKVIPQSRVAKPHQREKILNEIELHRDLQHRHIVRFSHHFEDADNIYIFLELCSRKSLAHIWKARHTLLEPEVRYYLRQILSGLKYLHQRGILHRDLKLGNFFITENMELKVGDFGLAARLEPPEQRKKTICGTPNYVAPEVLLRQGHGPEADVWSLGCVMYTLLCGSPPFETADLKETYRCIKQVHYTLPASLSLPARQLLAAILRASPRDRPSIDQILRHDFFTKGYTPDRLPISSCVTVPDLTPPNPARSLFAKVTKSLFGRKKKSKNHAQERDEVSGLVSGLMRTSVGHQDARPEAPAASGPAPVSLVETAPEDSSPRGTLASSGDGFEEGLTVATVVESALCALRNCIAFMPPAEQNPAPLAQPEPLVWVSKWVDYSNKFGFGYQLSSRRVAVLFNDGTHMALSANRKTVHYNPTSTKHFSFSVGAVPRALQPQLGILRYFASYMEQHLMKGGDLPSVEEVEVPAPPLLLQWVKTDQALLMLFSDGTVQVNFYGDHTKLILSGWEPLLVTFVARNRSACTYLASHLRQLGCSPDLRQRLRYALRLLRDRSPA", "assay": "biochemical", "type": "biochemical", "settings": "kinase PLK3; ZLYTE"}, "various kinases [13]": {"molecular_target": "various kinases (Homo sapiens, UniProt Q05655)", "sequence (Q05655 whole entry)": "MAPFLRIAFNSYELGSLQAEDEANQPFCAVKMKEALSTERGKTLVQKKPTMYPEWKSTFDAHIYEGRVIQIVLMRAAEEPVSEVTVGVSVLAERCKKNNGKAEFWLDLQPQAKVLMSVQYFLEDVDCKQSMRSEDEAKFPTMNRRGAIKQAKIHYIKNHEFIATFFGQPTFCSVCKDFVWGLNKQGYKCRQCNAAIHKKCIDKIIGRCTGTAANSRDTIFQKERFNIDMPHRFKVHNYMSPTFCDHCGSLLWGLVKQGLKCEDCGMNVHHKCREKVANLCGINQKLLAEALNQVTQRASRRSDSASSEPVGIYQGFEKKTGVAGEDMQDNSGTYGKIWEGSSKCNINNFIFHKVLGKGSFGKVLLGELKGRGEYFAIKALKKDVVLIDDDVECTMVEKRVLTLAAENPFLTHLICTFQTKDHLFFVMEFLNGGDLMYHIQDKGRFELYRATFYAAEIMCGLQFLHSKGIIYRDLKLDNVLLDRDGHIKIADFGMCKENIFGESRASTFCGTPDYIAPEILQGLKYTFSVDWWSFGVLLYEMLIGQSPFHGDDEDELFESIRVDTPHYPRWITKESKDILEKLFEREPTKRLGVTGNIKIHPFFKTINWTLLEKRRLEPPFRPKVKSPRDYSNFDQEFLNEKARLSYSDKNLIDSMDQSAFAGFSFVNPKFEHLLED", "assay": "biochemical", "type": "biochemical", "settings": "kinase PRKCD (PKC delta); ZLYTE"}, "various kinases [14]": {"molecular_target": "various kinases (Homo sapiens, UniProt Q02750)", "assay": "biochemical", "type": "biochemical", "settings": "MAP2K1 (MEK1)"}, "hERG K+ channel": {"molecular_target": "hERG K+ channel (Homo sapiens, UniProt Q12809)", "assay": "biochemical"}, "BT-12 AT/RT cells": {"tested_on": "BT-12 AT/RT cells", "assay": "Confluency assay (IncuCyte ZOOM), BT-12", "type": "cell-based, human", "settings": "increasing concentrations starting at 31.25nM, 48 hours, p-value=0.001", "protocol": "as §2"}, "BT-12 cells": {"tested_on": "BT-12 cells", "assay": "Viability assay (Presto Blue), BT-12", "type": "cell-based", "settings": "Homo sapiens, dose-response 1nM to 10μM", "protocol": "as §3"}, "AURKC": {"molecular_target": "AURKC (Homo sapiens, UniProt Q9UQB9)", "sequence (Q9UQB9 whole entry)": "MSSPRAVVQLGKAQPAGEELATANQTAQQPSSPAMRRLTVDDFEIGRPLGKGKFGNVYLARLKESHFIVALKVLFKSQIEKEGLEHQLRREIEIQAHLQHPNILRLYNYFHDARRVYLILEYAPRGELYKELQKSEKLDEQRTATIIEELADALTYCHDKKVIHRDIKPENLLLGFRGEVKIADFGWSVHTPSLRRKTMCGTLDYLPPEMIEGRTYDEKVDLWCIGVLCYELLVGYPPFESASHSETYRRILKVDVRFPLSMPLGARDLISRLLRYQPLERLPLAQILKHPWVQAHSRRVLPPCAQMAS", "assay": "Kinase activity screening (SelectScreen), AURKC", "type": "biochemical", "settings": "read-out: kinase activity inhibited"}, "[15]": {"tested_on": "G401, BT-12, BT-16, DAOY and D283 cell lines", "assay": "Immunofluorescence for gamma-tubulin (centriole number), other RT and MB lines", "type": "cell-based, human", "protocol": "The cells were then blocked in blocking buffer (5% BSA (Jackson Immuno Research Laboratories Inc., USA) in PBST) for 1 hour at RT. The primary antibody ([…] 1:500, Sigma, USA) diluted in 1% BSA in PBST was then added and incubated at 4°C overnight. Then, the cells were washed with 1X PBS thrice. Secondary antibody (Anti-Rabbit IgG (H+L) F (ab’) 2, 1:500, Sigma, USA) diluted in 1% BSA in PBST was added and incubated at RT for 2 hours. Three time washes with 1X PBS were performed. Then, 1mL of DAPI (Thermo Fisher Scientific, USA) in PBS (0.5μl of DAPI in 10 ml PBS) was added to the cells and incubated for 10 min at RT. Finally, 3 time washes with 1X PBS were performed and slides were mounted using Mounting Medium (Thermo Fisher Scientific, USA)."}, "MON MRT cells": {"tested_on": "MON MRT cells", "assay": "Confluency assay (IncuCyte ZOOM), MON", "type": "cell-based, human", "settings": "increasing concentrations starting at 31.25nM, 48 hours, p-value=0.004", "protocol": "as §2"}}, "note": "pIC50: −log10 of the molar value. Several values for one entry are separate records, joined by “and”; a condition that tells them apart may be missing. Equal values may be shown once.", "data": [{"smiles": "COc1ccc2c(c1)[C@]1(C[C@H]1c1ccc3c(/C=C/c4ccc(CN5C[C@@H](C)O[C@@H](C)C5)cc4)n[nH]c3c1)C(=O)N2", "note": "[CFI-400945]", "values": [{"measurement": "polyploidy (cell cycle analysis)", "setting": "MON rhabdoid cells", "result": "time-dependent induction of polyploidy"}, {"measurement": "cell death (apoptosis, flow cytometry) vs control", "setting": "[1]", "result": "significantly higher percentage of cells undergoing cell death"}, {"measurement": "pIC50", "setting": "DAOY cells", "result": 7.03}, {"measurement": "polyploidy (cell cycle analysis)", "setting": "[2]", "result": "extreme polyploidy"}, {"measurement": "FC, delay in reaching confluency", "setting": "G401 RTK cells", "result": 1.78}, {"measurement": "pIC50", "setting": "G401 cells", "result": 5.42}, {"measurement": "pIC50", "setting": "TEK [3]", "result": 6.96}, {"measurement": "% Inhibition Average", "setting": "TEK [4]", "result": 31, "unit": "%"}, {"measurement": "% Inhibition Duplicate #1", "setting": "TEK [4]", "result": 29, "unit": "%"}, {"measurement": "% Inhibition Duplicate #2", "setting": "TEK [4]", "result": 32, "unit": "%"}, {"measurement": "% Inhibition Duplicate #2", "setting": "TEK [5]", "result": 55, "unit": "%"}, {"measurement": "% Inhibition Duplicate #2", "setting": "TEK [6]", "result": 87, "unit": "%"}, {"measurement": "colony formation", "setting": "D283 cells", "result": "Complete inhibition"}, {"measurement": "% Inhibition", "setting": "various kinases [7]", "result": "-2% and 1%"}, {"measurement": "% Inhibition", "setting": "various kinases [8]", "result": "0% and 7%"}, {"measurement": "% Inhibition", "setting": "various kinases [9]", "result": "3% and 4%"}, {"measurement": "% Inhibition", "setting": "various kinases [10]", "result": "9% and 2%"}, {"measurement": "% Inhibition", "setting": "various kinases [11]", "result": "-1% and 0%"}, {"measurement": "% Inhibition Average", "setting": "various kinases [12]", "result": -2, "unit": "%"}, {"measurement": "% Inhibition Duplicate #1", "setting": "various kinases [12]", "result": -7, "unit": "%"}, {"measurement": "% Inhibition Duplicate #2", "setting": "various kinases [12]", "result": 3, "unit": "%"}, {"measurement": "% Inhibition Average", "setting": "various kinases [13]", "result": -2, "unit": "%"}, {"measurement": "% Inhibition Duplicate #1", "setting": "various kinases [13]", "result": -8, "unit": "%"}, {"measurement": "% Inhibition Duplicate #2", "setting": "various kinases [13]", "result": 4, "unit": "%"}, {"measurement": "% Inhibition", "setting": "various kinases [14]", "result": 9, "unit": "%"}, {"measurement": "pIC50", "setting": "hERG K+ channel", "result": "< 6.30"}, {"measurement": "FC, delay in reaching confluency", "setting": "BT-12 AT/RT cells", "result": 1.89}, {"measurement": "pIC50", "setting": "BT-12 cells", "result": 5.43}, {"measurement": "inhibition at 0.5 µM", "setting": "AURKC", "result": 84, "unit": "%"}, {"measurement": "centrioles' number", "setting": "[15]; 100nM", "result": "increase"}, {"measurement": "centrioles' number", "setting": "[15]; 500nM", "result": "significant decrease"}, {"measurement": "FC, delay in reaching confluency", "setting": "MON MRT cells", "result": 1.56}]}]}
